Test results published in patent US20260109725A1, “MACROLIDE SENOLYTIC COMPOUNDS” (LUNELLA BIOTECH, INC., priority 2022, published 2026).

Tests used:
Format in all cases: cell-based, human
[1] = tested on: control MRC-5 cells (normal lung fibroblasts); experiment: SRB assay, control (normal) MRC-5 cells; settings: 10 μM
Protocol: (§1) For example, in one assay bromodeoxyuridine (5-bromo-2′-deoxyuridine), also known as BrdU, was used to induce senescence in a cell population. BrdU is an analog of the nucleoside thymidine commonly used to identify proliferating cells. BrdU induces controlled DNA damage, and drives cells towards senescence with high efficiency. In the BrdU assay, normal fibroblasts are subjected to prolonged culture (8-days) in the presence of BrdU at 100 μM to induce controlled DNA-damage and senescence. […] Senolytic activity was assessed using the sulforhodamine B assay, also known in the art as the SRB assay. This assay measures the amount of protein remaining attached to the tissue-culture dishes, and is a surrogate marker for cell viability.
(§2) FIG. 1 compares SRB assay results for different concentrations of Azithromycin (100 µM and 50 μM) and Compound [I] (100 μM and 50 μM) of the present approach, on both control MRC-5 cells and MRC-5 cells treated with BrdU. […] (labelled as “Azi-Gal” in FIG. 1) for another 5 days. After that, the SRB assay was performed to determine the effects of the drug on cell viability, using normal MRC-5 cells as the control. […] However, at 50 μM Azithromycin had no effect on either the control cells or senescent cells.
(§3) BrdU Assay: Cells were plated into 24-well plates. Next day, half of the plate was treated with 100 μM of BrdU while control wells were treated with vehicle only (DMSO) and incubated for 8 days at 37° C. in a 5% CO2 humidified atmosphere. After 8 days of BrdU treatment cells were treated with various test compounds or drugs (e.g., azithromycin, roxithromycin, telithromycin, erythromycin, etc.) for another 3-5 days. BrdU or vehicle treatments were continued during the drug treatments as well.
(§4) Sulphorhodamine B assay: After the incubation of the plates cell viability was measured by Sulphorhodamine B assay (SRB). The assay is based on the measurement of cellular protein contents. Cells were fixed with 10% Trichloroacetic acid (TCA) for 1 hour at […], and were dried overnight at room temperature. Then, plates were incubated with SRB for 30 min, washed twice with 1% acetic acid and air dried for at least 1 h. Finally, the protein-bound dye was dissolved in a 10 mM Tris, pH 8.8, solution and read using a plate reader at 540-nm.

[2] = tested on: MRC-5 cells treated with BrdU (senescent fibroblasts); experiment: SRB assay, BrdU-treated (senescent) MRC-5 cells
Protocol: as §1, §2, §3, §4

MCF-7 cells = experiment: mammosphere formation assay (3D anchorage independent growth)
Protocol: The compounds disclosed herein may also be used as therapeutic agent to selectively eradicate CSCs for treating and/or preventing tumor recurrence and/or metastasis. […] This assay measures the amount of residual protein that adheres to tissue culture dishes and is a surrogate marker of cell viability.
3D Anchorage Independent Growth Assay: This assay is also referred to as the mammosphere formation assay. A single-cell suspension was prepared using enzymatic, and manual disaggregation (25-g needle). Then, cells were plated at a density of 500 cells/cm^2 in mammosphere medium (DMEM-F12+1X B-27 Plus Supplement+20 ng/ml EGF+Pen/Strep) under non-adherent conditions, in culture dishes pre-coated with (2-hydroxyethylmethacrylate) (poly-HEMA, Sigma Aldrich Inc.), called “mammosphere plates.” Cells were grown for 5 days and maintained in a humidified incubator at 37° C. After 5 days of culture, 3D-mammospheres >50 μm were counted using an eye piece (“graticule”), and the percentage of cells plated which formed spheres was calculated and is referred to as percent mammosphere formation, and was normalized to one (1=100% MFE). 3D mammosphere formation efficiency (MFE) was analyzed in both the ATP-low and ATP-high sub-populations of cells. All 3D mammosphere experiments were performed in triplicate, at least 3 times independently.

In the case of `CC[C@H]1OC(=O)[C@H](C)[C@@H](O[C@@H]2C[C@@](C)(OC)[C@@H](O)[C@H](C)O2)[C@H](C)[C@@H](O[C@@H]2O[C@H](C)C[C@H](N(C)C)[C@H]2OC(=O)OCc2ccc(O[C@@H]3O[C@H](COC(C)=O)[C@H](OC(C)=O)[C@H](OC(C)=O)[C@H]3OC(C)=O)c([N+](=O)[O-])c2)[C@](C)(O)C[C@@H](C)CN(C)[C@H](C)[C@@H](O)[C@]1(C)O` [Compound [I], [(2R,3S,4S,5R,6S)-3,4,5-triacetoxy-6-[4-[[(2S,3R,4S,6R)-4-(dimethylamino)-2-[[(2R,3S,4R,5R,8R,10R,11R,12S,13S,14R)-2-ethyl-3,4,10-trihydroxy-13-[(2S,4R,5S,6S)-5-hydroxy-4-methoxy-4,6-dimethyl-tetrahydropyran-2-yl]oxy-3,5,6,8,10,12,14-heptamethyl-15-oxo-1-oxa-6-azacyclopentadec-11-yl]oxy]-6-methyl-tetrahydropyran-3-yl]oxycarbonyloxymethyl]-2-nitro-phenoxy]tetrahydropyran-2-yl]methyl acetate], the “effect on control cells (SRB)” value [1] is reported as “effective”, the “effect on senescent cells (SRB)” value ([2]; 10 μM) is reported as “effective” and the “selectivity towards senescent MRC-5 fibroblasts (SRB)” value ([2]; 50 μM, senescent vs control MRC-5) is reported as “exceptional selectivity”. The “inhibition of mammosphere formation” value (MCF-7 cells; 100 μM) was “nearly complete inhibition” and the IC50 (MCF-7 cells; Homo sapiens, MCF7) was 60 µM.
